Measured values reported in paper PMC9688808, “Discovery of Novel Lin28 Inhibitors to Suppress Cancer Cell Stemness” (Cancers, 2022).

Key:
DUNE cells [1] = assay: Real-time qPCR of Let-7d, SOX2, HMGA2 in DUNE cells; assay type: cell-based; details: 20 uM, 48 h
Protocol: The DUNE cell line and DUNE cells with Lin28B knockout by CRISPR (DUNE (KO)) were reported in our previous studies. IGROV1 cells were obtained from Sigma-Aldrich (St. Louis, MO, USA). DUNE and DUNE (KO) cells were cultured in Dulbecco’s Modified Eagle Medium with high Glucose/L-glutamine (DMEM; Hyclone, Logan, UT, USA) and 10% of fetal bovine serum (FBS; Gibico, Waltham, MA, USA). IGROV1 cells were cultured in Roswell Park Memorial Institute 1640 (RPMI-1640; Hyclone) medium with 10% FBS. All the cell lines were incubated in 5% CO2 at 37 °C and were tested for mycoplasma contamination monthly and cell line authentication was tested by short tandem repeat profiling by ATCC.
(§1) There are several standard molecular techniques, including real-time qPCR, flow cytometry, cell proliferation, colony formation, and immunoblotting assays, that have been reported previously by our lab.
Figure 4 Lin28 inhibitors restore Let-7d expression and suppress SOX2 and HMGA2 genes. DUNE (top) and DUNE (KO) (bottom) cells were treated with 20 uM of the indicated compounds for 48 h. Real-time qPCR measured RNA levels of Let-7d, SOX2, and HMGA2. Three biological replicates were performed and all results are presented as mean +/− SD. p-value ≤ 0.05—(*); ≤0.01—(**); ≤0.001—(***).

Lin28A ZKD = biological target: T1, Lin28A ZKD (Homo sapiens, UniProt Q9H9Z2); assay: EMSA, Lin28A ZKD–Let-7 complex; assay type: binding; details: compounds 100–1200 uM
T1 construct: Lin28A ZKD (aa121-187); His-tag; made in house; host or cells: Escherichia coli BL21
T1 sequence (Q9H9Z2 121-187): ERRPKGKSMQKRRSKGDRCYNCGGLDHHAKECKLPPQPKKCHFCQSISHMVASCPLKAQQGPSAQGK
Protocol: EMSA followed the standard protocols we published with minor modifications. An IRDye800CWN-labeled Let-7 RNA probe was purchased from IDT (Coralville, IA, USA). Lin28B or Lin28A proteins were incubated with […] of probe in a standard 20 uL EMSA reaction in a reaction buffer containing 20 mM HEPES-NaOH, pH 7.4, 2 mM DTT, 3 mM MgCl2, 0.05% NP-40, protease inhibitors, and 0.1 ug poly[dI:dC]. After incubation for 30 min at 37 °C, reactions were loaded onto 4% non-denatured polyacrylamide gel in 0.5× TBE buffer. The RNA oligo bands were visualized by using the Li-Cor Odyssey 9120 Infrared Imaging System.
Figure 5 Lin28 inhibitors block the Lin28A isoform. (A) EMSA used 10 nM of IR800DyeCWN-labeled Let-7 probe (lane 1), 0.5 uM Lin28A ZKD protein with 10 nM of labeled Let-7 probe (lane 2), or Lin28A ZKD, labeled Let-7 probe and 100× non-labeled competitor probe (lane 3). EMSA used Lin28A ZKD, labeled Let-7 probe, and 100–1200 uM of indicated compounds (lanes 4–10). (B) FP assays were performed by using 10 uM of Lin28A ZKD, 1 nM of FAM-labeled Let-7 probe, and 1 nM–200 uM of compounds. (C) Lin28A-positive IGROV1 cells were treated with 20 uM of the indicated compound for 48 h. Real-time qPCR measured RNA levels of Let-7d, SOX2, and HMGA2. Three biological replicates were performed and all results are presented as mean +/− SD. p-value ≤ 0.05—(*); ≤0.01—(**); ≤0.001—(***).

DUNE cells [2] = assay: Colony formation assay, DUNE cells; assay type: cell-based; details: 20 uM (Figure 7C)
Protocol: as §1
Figure 7 Lin28 inhibitors block CSC phenotypes of cancer cells. (A) FACS analysis using CD44 and CD133 antibodies detected CSC cell populations from DUNE or DUNE (KO) cells treated with either vehicle or 20 uM of Ln7, Ln15, and Ln115 for 48 h. (B) DUNE, DUNE (KO), and IGROV1 cell proliferation were measured in the presence of 20 uM of Ln7, Ln15, and Ln115. (C) Colony formation assays (colonies >[…] were counted) measured the suppressive effects of Ln7, Ln15, and Ln115 at the concentration of 20 uM. p-value ≤ 0.01—(**); ≤0.001—(***).
Figure S4. A. Colony formation assays: DUNE cells were seeded in 500 cells/well. Chemicals were added one day after cell seeding (n=3 wells/chemical). Medium with chemical at the concentration of 60uM was changed every four days for 14 days. […]
0.005% crystal violet staining for 2 hours. ImageJ was used to analyze colony size and numbers (circularity was set at 0.5 -1, which is equivalent to 50uM in size). Only colonies larger than […]
50uM were countered. […]
(1 picture or pasted object on this page, not shown here)

concentration that inhibits formation of Lin28A ZKD–Let-7 complex in EMSA (Lin28A ZKD) [µM]	SMILES	HMGA2 mRNA level (DUNE cells [1])	Let-7d expression level (DUNE cells [1])	SOX2 mRNA level (DUNE cells [1])	formation of cancer cell colonies (DUNE cells [2])	suppressive effect on colony formation (DUNE cells [2]; colonies >50 uM counted)
100 to 400	CCOc1cccc2c1N[C@@H](c1ccc(C(=O)O)cc1)[C@H]1CC=C[C@@H]21 [Li71, reference compound]	strongly inhibited	approximately six- to eight-fold	strongly inhibited	strongly suppressed	
> 1200	CCc1cc(=O)[nH]c(Nc2cc(Cl)ccc2O)n1 [Ln7]	strongly inhibited	approximately six- to eight-fold	strongly inhibited	strongly suppressed	
100 to 400	O=c1[nH]c(Nc2ccccc2O)cs1 [Ln15]	strongly inhibited	approximately six- to eight-fold	strongly inhibited	strongly suppressed	~ 90%
100 to 400	O=c1cccc(-c2nc3cc(F)c(O)cc3c(=O)[nH]2)[nH]1 [Ln115]	strongly inhibited	approximately six- to eight-fold	strongly inhibited	strongly suppressed	
> 1200	CC(=O)N(C)c1cccc(-c2ccc3nnc(C)n3n2)c1 [compound 1632, reference compound]	not	did not show any impacts	not	strongly suppressed	
